The record followed here is patent US20240115644A1, “COMPOSITION FOR PREVENTING, IMPROVING OR TREATING GASTRITIS OR PEPTIC ULCER COMPRISING EXTRACT OF CINNAMOMUM CASSIA, FRACTION OF SAID EXTRACT, ISOLATE OF SAID FRACTION OR COMPOUNDS ISOLATED THEREFROM” (CHONG KUN DANG PHARMACEUTICAL CORP., priority 2020, published 2024).

For experiment [1], the system named is indomethacin-induced gastric ulcer. The experiment is described as follows: Gastric ulcer index / inhibition rate in indomethacin-induced animal model. The format is in vivo, rats. Conditions: for Inhibition rate (%): gastric ulcer, rats, stomach excised 5 h after; for gastric ulcer inhibition rate compared to Stillen and Rebamipide (in words) / level of gastric ulcer inhibition rate despite the very small amount (in words): indomethacin-induced rats, summary of Table 13 and FIG. 7. An excerpt: [Measurement of gastric ulcer inhibitory effect in animals]
Experimental Example 2. Confirmation of Gastric Ulcer Inhibition Rate
Evaluation of Gastric Ulcer Index in Indomethacin-Induced Animal Model
For test animals, 7-week-old male rats without specific pathogens (SPF) were randomly distributed to each group by a randomized method so that the average body weight was distributed as evenly as possible after the adaptation period (7 days). The administration route was single administration of artemisia extract, and rebamipide and ethyl acetate pretreated water extract of Cinnamomum cassia, fraction (N2-1), 3,4-dihydroxybenzaldehyde, ferulic acid, 4-hydroxycinnamaldehyde, as oral administration, respectively, and the dose was calculated and administered as 10 mL/Kg based on the body weight measured on the day of administration. All animals were fasted 48 hours before administration of the test substance and control drug, and then each test substance and control drug were orally administered, and at 30 minutes after administration, indomethacin prepared in advance was orally administered at a dose of 80 mg/kg. After anesthesia with diethyl ether at 5 hours after administration of indomethacin, the stomach was excised and the gastric mucosa was photographed with a digital camera. The area of the damaged part was analyzed using ImageJ software (NIH, Bethesda, MD). The gastric ulcer index was measured according to the following equation.
Gastric ulcer index (%)=(damaged area/total area)×100 [Equation 2]

The test system of the next experiment is Raw 264.7 cells. The experiment is described as follows: Nitric oxide (NO) production inhibitory activity in LPS-stimulated Raw 264.7 cells (Griess reagent). Particulars: for NO: Raw 264.7 cells, LPS 100 ng/ml, sample concentration not given; for NO inhibition rate (%): vs LPS-only group. On the set-up: NO inhibition rate (%): concentration or dose not given beside the values. The format is cell-based. On the procedure: [Measurement of Anti-Inflammatory Effect in Raw 264.7 Cells] Experimental Example 1. Confirmation of Nitric Oxide Production Inhibitory Activity Nitric oxide (NO) measurement was measuring the amount of nitric oxide (NO) in the supernatant of cells as nitrite and nitrate. The safe form after oxidation from nitrite to nitrate was measured using a griess reagent (Sigma, USA). In a […], 3×10^5 cells were cultured for 24 hours. […] Then, all wells except the normal group were stimulated by adding 100 ng/ml Lipopolysaccharide (LPS). After reacting with the griess reagent for 5 minutes, the absorbance was measured at 540 nm. The calibration curve was prepared using sodium nitrite solution, and the concentration of nitrite was calculated through absorbance. The NO inhibition rate was evaluated by a method of comparing with the group treated only with LPS according to Equation 1 below. The result was shown in the following Tables 7, 8, 9, 10, 11 and 12 and FIGS. 2, 3, 4 and 5. NO inhibition rate (%)=100−[(NO production amount of sample addition group*×100)/NO production amount of sample non-addition group*] [Equation 1] *Lipopolysaccharide (LPS) treatment group
(In general: Nitrite, measured by Griess reagent, commonly stands in for NO production.)

Setting [2] is: Prep-HPLC purified products from N2-1.
The mark [3] stands for this setting: single oral dose 1.5 mg/kg 30 min before indomethacin 80 mg/kg p.o.
Where [4] appears, read: Prep-HPLC purified products from R2-2.

`O=C/C=C/c1ccc(O)cc1` [Compound B, 4-hydroxycinnamaldehyde]: in experiment [1] (single oral dose 2.0 mg/kg 30 min before indomethacin 80 mg/kg p.o.), the “Inhibition rate (%)” value is 46.1%. In experiment [1], the “gastric ulcer inhibition rate compared to Stillen and Rebamipide (in words)” value is given as “excellent gastric ulcer inhibition rate”; the “level of gastric ulcer inhibition rate despite the very small amount (in words)” value was “very high level of gastric ulcer inhibition rate”. In the experiment with Raw 264.7 cells (setting [2]), the “NO” value worked out at 35.18 µM and the “NO inhibition rate (%)” value turned out to be 29%.

For the compound `O=C(NC(Cc1cc(=O)[nH]c2ccccc12)C(=O)O)c1ccc(Cl)cc1` (stereo not shown) [Rebamipide, reference compound], in experiment [1] (single oral dose 30 mg/kg 30 min before indomethacin 80 mg/kg p.o.), the “Inhibition rate (%)” value worked out at 21.5%.

Take `COc1cc(/C=C/C(=O)O)ccc1O` [Compound A, ferulic acid]: the “Inhibition rate (%)” value in experiment [1] (setting [3]) amounted to 61.8%. In experiment [1], the “gastric ulcer inhibition rate compared to Stillen and Rebamipide (in words)” value is on record as “excellent gastric ulcer inhibition rate”; the “level of gastric ulcer inhibition rate despite the very small amount (in words)” value was “very high level of gastric ulcer inhibition rate”. In the experiment on Raw 264.7 cells (setting [2]), the “NO” value turned out to be 49.57 µM and the “NO inhibition rate (%)” value was determined as 0%.

Turning to `O=C(O)CCc1ccccc1O` [Compound C, 3-(2-hydroxyphenyl)propanoic acid], in the experiment with Raw 264.7 cells (setting [2]), the “NO” value amounted to 48.54 µM and the “NO inhibition rate (%)” value is on record as 0%.

As for `O=Cc1ccc(O)c(O)c1` [Compound D, 3,4-dihydroxybenzaldehyde], the “Inhibition rate (%)” value in experiment [1] (setting [3]) is on record as 61.3%. In addition, in experiment [1], the “gastric ulcer inhibition rate compared to Stillen and Rebamipide (in words)” value is reported as “excellent gastric ulcer inhibition rate”; the “level of gastric ulcer inhibition rate despite the very small amount (in words)” value was “very high level of gastric ulcer inhibition rate”. In addition, in the experiment with Raw 264.7 cells (setting [4]), the “NO” value stood at 44.41 µM and the “NO inhibition rate (%)” value is 10%.

Take `COc1cc(C(=O)O)ccc1O` [Compound F, vanillic acid]: in the experiment with Raw 264.7 cells (setting [4]), the “NO” value was determined as 49.88 µM and the “NO inhibition rate (%)” value is given as 0%.

With `COc1cc(C(=O)O)cc(OC)c1O` [Compound E, syringic acid], in the experiment with Raw 264.7 cells (setting [4]), the “NO” value came out at 47.83 µM and the “NO inhibition rate (%)” value came out at 0%.
